Reference: patent US11478461B2, “[1.1.1] bicyclo compounds as indoleamine 2,3-dioxygenase inhibitors” (Merck Sharp & Dohme Corp., priority 2018, dated 2022)
pIC50: −log10 of the molar value.

These compounds were tested against IDO1 (Homo sapiens, UniProt P14902) (assay: IDO1 Cellular Assay in Hela Cells Stimulated with IFNγ). Settings: IFNγ 100 ng/mL, 300 uM L-tryptophan, about 48 hours, fluorescence readout, read-out: IDO1 HELA Cell Assay, IC50.
Sequence of IDO1 (P14902 whole entry): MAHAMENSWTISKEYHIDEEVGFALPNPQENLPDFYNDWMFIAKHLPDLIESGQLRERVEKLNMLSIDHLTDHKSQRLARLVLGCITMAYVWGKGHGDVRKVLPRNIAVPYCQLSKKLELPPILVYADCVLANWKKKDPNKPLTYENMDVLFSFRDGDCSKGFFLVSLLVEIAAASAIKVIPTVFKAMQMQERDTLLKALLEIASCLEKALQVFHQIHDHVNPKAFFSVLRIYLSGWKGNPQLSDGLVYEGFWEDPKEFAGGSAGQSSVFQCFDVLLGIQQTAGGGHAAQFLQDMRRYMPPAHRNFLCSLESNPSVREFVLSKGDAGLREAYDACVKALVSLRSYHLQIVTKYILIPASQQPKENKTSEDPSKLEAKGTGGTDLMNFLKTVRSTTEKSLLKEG
Format: cell-based
Method in brief: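 HeLa cells stimulated with 100 ng/mL IFNγ, supplemented with 300 uM L-tryptophan, incubated 48 h at 37° C with ten 3-fold compound dilutions. Unstimulated cells served as Max-E control. Kynurenine detected by fluorescence (ex 400/em 510 nm) after overnight methyl isonipecotate reaction; IC50 by four-parameter logistic fit.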
`C[C@H](C(=O)Nc1ccc(F)cc1)C12CC(NC(=O)c3ccc(C(F)(F)F)nc3)(C1)C2` [Example 146, (S)-N-(3-(1-((4-fluorophenyl)amino)-1-oxopropan-2-yl)bicyclo[1.1.1]pentan-1-yl)-6-(trifluoromethyl)nicotinamide] was tested, and the pIC50 was 6.66. Work on `CC(C(=O)Nc1ccc(F)cc1)C12CC(NC(=O)c3cc(C4CC4)on3)(C1)C2` (stereo not drawn) [Example 120, 5-cyclopropyl-N-[3-[2-(4-fluoroanilino)-1-methyl-2-oxo-ethyl]-1-bicyclo[1.1.1]pentanyl]isoxazole-3-carboxamide] yielded a pIC50 of 6.90. Compound `CC(C(=O)Nc1ccc(Cl)cc1)C12CC(NC(=O)c3cccc(C#N)c3)(C1)C2` (single isomer, unassigned) [Example 12, N-(3-(1-((4-chlorophenyl)amino)-1-oxopropan-2-yl)bicyclo[1.1.1]pentan-1-yl)-3-cyanobenzamide] has a pIC50 of 7.01. `Cc1ccnc(C(=O)NC23CC(C(C)C(=O)Nc4ccc(F)cc4)(C2)C3)c1` (stereo not drawn) [Example 118, N-[3-[2-(4-fluoroanilino)-1-methyl-2-oxo-ethyl]-1-bicyclo[1.1.1]pentanyl]-4-methyl-pyridin-1-ium-2-carboxamide] showed a pIC50 of 7.05. `Cc1nc(C(=O)NC23CC(C(C)C(=O)Nc4ccc(F)cc4)(C2)C3)cs1` (stereo not drawn) [Example 123, N-[3-[2-(4-fluoroanilino)-1-methyl-2-oxo-ethyl]-1-bicyclo[1.1.1]pentanyl]-2-methyl-thiazole-4-carboxamide] gave a pIC50 of 6.83. `CC(NC(=O)c1ccc(F)cc1)C12CC(NC(=O)c3ccc(Cl)c(Cl)c3)(C1)C2` (single isomer, unassigned) [Example 21, 3,4-Dichloro-N-(3-(1-(4-fluorobenzamido)ethyl)bicyclo [1.1.1]pentan-1-yl) Benzamide] gave a pIC50 of 6.04. For `CC(C(=O)Nc1ccc(F)cc1)C12CC(NC(=O)c3ccc(C(F)(F)F)cn3)(C1)C2` (stereo not drawn) [Example 133, N-[3-[2-(4-fluoroanilino)-1-methyl-2-oxo-ethyl]-1-bicyclo[1.1.1]pentanyl]-5-(trifluoromethyl)pyridin-1-ium-2-carboxamide], the pIC50 was 6.59. `C[C@H](C(=O)Nc1ccc(F)cc1)C12CC(NC(=O)c3ccnc(C(F)(F)F)c3)(C1)C2` [Example 66, N-[3-[(1S)-2-(4-fluoroanilino)-1-methyl-2-oxo-ethyl]-1-bicyclo[1.1.1]pentanyl]-2-(trifluoromethyl)pyridin-1-ium-4-carboxamide] was tested, and the pIC50 was 7.88. `CC(C(=O)Nc1ccc(F)cc1)C12CC(NC(=O)c3cnc(Cl)cn3)(C1)C2` (stereo not drawn) [Example 140, 5-chloro-N-[3-[2-(4-fluoroanilino)-1-methyl-2-oxo-ethyl]-1-bicyclo[1.1.1]pentanyl]pyrazine-2-carboxamide] was tested, and the pIC50 was 6.40. With `Cc1ccc(C(=O)NC23CC([C@H](C)C(=O)Nc4ccc(F)cc4)(C2)C3)cc1Cl` [Example 49, 3-chloro-N-[3-[(1S)-2-(4-fluoroanilino)-1-methyl-2-oxo-ethyl]-1-bicyclo[1.1.1]pentanyl]-4-methyl-benzamide] the pIC50 was 6.60. `C[C@@H](C(=O)Nc1cnc(Cl)c(F)c1)C12CC(NC(=O)c3ccc(Cl)c(Cl)c3)(C1)C2` [Example 89, (R)-3,4-dichloro-N-(3-(1-((6-chloro-5-yl)amino)-1-oxopropan-2-yl)bicyclo[1.1.1]pentan-1-yl)benzamide] was tested, and the pIC50 was 7.18. Work on `Cc1noc(C(=O)NC23CC(C(C)C(=O)Nc4ccc(F)cc4)(C2)C3)n1` (stereo not drawn) [Example 114, N-[3-[2-(4-fluoroanilino)-1-methyl-2-oxo-ethyl]-1-bicyclo[1.1.1]pentanyl]-3-methyl-1,2,4-oxadiazole-5-carboxamide] yielded a pIC50 of 7.22. `C[C@@H](C(=O)Nc1ccc(F)cc1)C12CC(NC(=O)OC(C)(C)C)(C1)C2` (single isomer, unassigned) [Example 31] was tested, and the pIC50 was less than 5.00. For `C[C@H](C(=O)Nc1ccc(F)cc1)C12CC(NC(=O)c3cccc(Cl)c3F)(C1)C2` [Example 51, 3-chloro-2-fluoro-N-[3-[(1S)-2-(4-fluoroanilino)-1-methyl-2-oxo-ethyl]-1-bicyclo[1.1.1]pentanyl]benzamide], the pIC50 was 6.65. `C[C@H](C(=O)Nc1ccc(F)cc1)C12CC(NC(=O)Nc3cccc(Cl)c3)(C1)C2` [Example 81, (S)-2-(3-(3-(3-chlorophenyl)ureido)bicyclo [1.1.1]pentan-1-yl)-N-(4-fluorophenyl)propanamide] showed a pIC50 of 7.81. Work on `CC(C(=O)Nc1ccc(F)cc1)C12CC(NC(=O)c3cccc4ccncc34)(C1)C2` (stereo not drawn) [Example 130, N-[3-[2-(4-fluoroanilino)-1-methyl-2-oxo-ethyl]-1-bicyclo[1.1.1]pentanyl]isoquinolin-2-ium-8-carboxamide] yielded a pIC50 of 6.61. For `C[C@@H](C(=O)Nc1ccc(F)c(F)c1)C12CC(NC(=O)c3ccc(Cl)c(Cl)c3)(C1)C2` [Example 91, (R)-3,4-dichloro-N-(3-(1-((3,4-difluorophenyl)amino)-1-oxopropan-2-yl)bicyclo[1.1.1]pentan-1-yl)benzamide], the pIC50 was 6.91. For `CC(C(=O)Nc1ccc(Cl)cc1)C12CC(NC(=O)c3cccc(Cl)c3)(C1)C2` (single isomer, unassigned) [Example 6, 3-Chloro-N-(3-(1-((4-chlorophenyl)amino)-1-oxopropan-2-yl)bicyclo [1.1.1]pentan-1-yl) Benzamide], the pIC50 was 7.41. `Cc1ccc(C(=O)NC23CC([C@H](C)C(=O)Nc4ccc(F)cc4)(C2)C3)nc1Cl` [Example 61, 6-chloro-N-[3-[(1S)-2-(4-fluoroanilino)-1-methyl-2-oxo-ethyl]-1-bicyclo[1.1.1]pentanyl]-5-methyl-pyridin-1-ium-2-carboxamide] showed a pIC50 of 7.96. Compound `CCOc1cccc(C(=O)NC23CC(C(C)C(=O)Nc4ccc(F)cc4)(C2)C3)n1` (stereo not drawn) [Example 138, 6-ethoxy-N-[3-[2-(4-fluoroanilino)-1-methyl-2-oxo-ethyl]-1-bicyclo[1.1.1]pentanyl]pyridin-1-ium-2-carboxamide] has a pIC50 of 6.41. With `C[C@@H](C(=O)Nc1ccc(F)cc1)C12CC(NC(=O)c3cccc(Cl)n3)(C1)C2` [Example 33, (R)-6-Chloro-N-(3-(1-((4-fluorophenyl)amino)-1-oxopropan-2-yl)bicyclo[1.1.1]pentan-1-yl)picolinamide] the pIC50 was 5.14. Compound `Cc1cc(C(=O)NC23CC([C@H](C)C(=O)Nc4ccc(F)cc4)(C2)C3)ccc1F` [Example 54, 4-fluoro-N-[3-[(1S)-2-(4-fluoroanilino)-1-methyl-2-oxo-ethyl]-1-bicyclo[1.1.1]pentanyl]-3-methyl-benzamide] has a pIC50 of 6.73. `Cc1ncc(C(=O)NC23CC([C@H](C)C(=O)Nc4ccc(F)cc4)(C2)C3)cc1F` [Example 65, 5-fluoro-N-[3-[(1S)-2-(4-fluoroanilino)-1-methyl-2-oxo-ethyl]-1-bicyclo[1.1.1]pentanyl]-6-methyl-pyridin-1-ium-3-carboxamide] showed a pIC50 of 7.55. With `Cc1ccn2ncc(C(=O)NC34CC(C(C)C(=O)Nc5ccc(F)cc5)(C3)C4)c2c1` (stereo not drawn) [Example 124, N-[3-[2-(4-fluoroanilino)-1-methyl-2-oxo-ethyl]-1-bicyclo[1.1.1]pentanyl]-5-methyl-pyrazolo[1,5-a]pyridin-1-ium-3-carboxamide] the pIC50 was 6.82. `C[C@H](C(=O)Nc1ccc(F)c(F)c1)C12CC(NC(=O)c3ccc(Cl)c(Cl)c3)(C1)C2` [Example 97, (S)-3,4-dichloro-N-(3-(1-((3,4-difluorophenyl)amino)-1-oxopropan-2-yl)bicyclo[1.1.1]pentan-1-yl)benzamide] gave a pIC50 of 6.59. `Cc1cccc(C(=O)NC23CC(C(C)C(=O)Nc4ccc(F)cc4)(C2)C3)n1` (stereo not drawn) [Example 119, N-[3-[2-(4-fluoroanilino)-1-methyl-2-oxo-ethyl]-1-bicyclo[1.1.1]pentanyl]-6-methyl-pyridin-1-ium-2-carboxamide] was tested, and the pIC50 was 6.95. In the case of `Cc1ccc(C(=O)NC23CC([C@@H](C)C(=O)Nc4ccc(F)cc4)(C2)C3)cc1Cl` [Example 44, 3-chloro-N-[3-[(1R)-2-(4-fluoroanilino)-1-methyl-2-oxo-ethyl]-1-bicyclo[1.1.1]pentanyl]-4-methyl-benzamide], the pIC50 was 8.64. Work on `CC(C(=O)Nc1ccc(F)cc1)C12CC(NC(=O)c3cnnc4ccccc34)(C1)C2` (stereo not drawn) [Example 135, N-[3-[2-(4-fluoroanilino)-1-methyl-2-oxo-ethyl]-1-bicyclo[1.1.1]pentanyl]cinnoline-4-carboxamide] yielded a pIC50 of 6.56. For `C[C@H](C(=O)Nc1ccc(F)cc1)C12CC(NC(=O)c3cncc(C(F)(F)F)c3)(C1)C2` [Example 68, N-[3-[(1S)-2-(4-fluoroanilino)-1-methyl-2-oxo-ethyl]-1-bicyclo[1.1.1]pentanyl]-5-(trifluoromethyl)pyridin-1-ium-3-carboxamide], the pIC50 was 7.86. With `CCc1ccnc(C(=O)NC23CC(C(C)C(=O)Nc4ccc(F)cc4)(C2)C3)c1` (stereo not drawn) [Example 117, 4-ethyl-N-[3-[2-(4-fluoroanilino)-1-methyl-2-oxo-ethyl]-1-bicyclo[1.1.1]pentanyl]pyridin-1-ium-2-carboxamide] the pIC50 was 7.13. Compound `C[C@H](C(=O)Nc1cccc(C(F)(F)F)c1)C12CC(NC(=O)c3ccc(Cl)c(Cl)c3)(C1)C2` [Example 99, (S)-3,4-dichloro-N-(3-(1-oxo-1-((3-(trifluoromethyl)phenyl)amino)propan-2-yl)bicyclo[1.1.1]pentan-1-yl)benzamide] has a pIC50 of 6.95. Compound `C[C@H](C(=O)Nc1ccc(F)cc1)C12CC(NC(=O)c3ccc4ccccc4c3)(C1)C2` [Example 148, (S)-N-(3-(1-((4-fluorophenyl)amino)-1-oxopropan-2-yl)bicyclo[1.1.1]pentan-1-yl)-2-naphthamide] has a pIC50 of 7.71. Work on `CC(NC(=O)c1ccc(F)cc1)C12CC(NC(=O)c3ccc(Cl)c(Cl)c3)(C1)C2` (single isomer, unassigned) [Example 22, 3,4-Dichloro-N-(3-(1-(4-fluorobenzamido)ethyl)bicyclo [1.1.1]pentan-1-yl) Benzamide] yielded a pIC50 of 7.54.
